Holding throughout (type): cell-based
Settings in all cases: 24 h incubation, visual reading

For assay [1], the system named is Staphylococcus aureus MRSA ATCC 43300. In words: MIC assay, S. aureus MRSA ATCC 43300. The procedure:
(§1) Antimicrobial activity of compounds was tested against a number of bacterial strains, including Staphylococcus aureus (MRSA ATCC 43300, GISA NRS17, VISA NRS1, MRSA clinical isolate, daptomycin resistant clinical isolate), Streptococcus pneumoniae (MDR ATCC 700677), Enterococcus faecalis (VanA clinical isolate) and Enterococcus faecium (MDR Van A ATCC 51559).
(§2) All compounds were prepared to 160 μg/ml solution in water from a stock solution of 1 mM concentration.
(§3) The compounds, along with standard antibiotics were serially diluted twofold across the wells of 96-well non-binding surface plates (NBS, Corning). Standards ranged from 64 μg/ml to 0.03 μg/ml and compounds from 8 μg/ml to 0.003 μg/ml with final volumes of 50 μL per well. Gram positive bacteria were cultured in Muller Hinton broth (MHB) (Bacto laboratories, Cat. no. 211443) at 37° C. overnight. A sample of each culture was then diluted 40-fold in fresh MHB broth and incubated at 37° C. for 2-3 hrs. The resultant mid-log phase cultures were diluted to the final concentration of 5×10e5 CFU/mL, then 50 μL was added to each well of the compound-containing 96-well plates. All the plates were covered and incubated at 37° C. for 24 h. MICs were the lowest concentration showing no visible growth.
(§4) MICs were determined visually at 24 hr incubation and the MIC was defined as the lowest concentration with which no growth was visible after incubation. Both MIC and MBC were determined by visual inspection only.

In assay [2] the test system is Streptococcus pneumoniae MDR ATCC 700677. In words: MIC assay, S. pneumoniae MDR ATCC 700677. The method, then:
as §1, §2, §3, §4

In assay [3] the test system is Enterococcus faecium MDR Van A ATCC 51559. In words: MIC assay, E. faecium MDR Van A ATCC 51559. The procedure:
as §1, §2, §3, §4

This note sets out measurements from patent US10947271B2, “Antibacterial agents” (THE UNIVERSITY OF QUEENSLAND, priority 2014, dated 2021).

As to `CCCCCCCCCCC(=O)N[C@@H](CCCCN)C(=O)N[C@@H](CCCCN)C(=O)NCc1cccc(CNC(=O)[C@H]2NC(=O)[C@H]3NC(=O)[C@H](NC(=O)[C@@H]4NC(=O)[C@H](CC(N)=O)NC(=O)[C@H](NC(=O)[C@@H](CC(C)C)NC)[C@H](O)c5ccc(c(Cl)c5)Oc5cc4cc(c5O[C@@H]4O[C@H](CO)[C@@H](O)[C@H](O)[C@H]4O[C@H]4C[C@](C)(N)[C@H](O)[C@H](C)O4)Oc4ccc(cc4Cl)[C@H]3O)c3ccc(O)c(c3)-c3c(O)cc(O)cc32)c1` [MCC_005044], the “Minimum Inhibitory Concentration (MIC) Staph. aureus ATCC43300” value in assay [1] is reported as “xxxxx (xxxxx = <0.01)”. For the same compound, in assay [2], the “Minimum Inhibitory Concentration (MIC) S. pneumoniae ATCC 700677” value is reported as “xxxxx (xxxxx = <0.01)”. For the same compound, the “Minimum Inhibitory Concentration (MIC) E. faecium ATCC51559” value in assay [3] is listed as “xxx (xxx = 0.1-<1)”.
For `CCCCCCCCCCC(=O)N[C@@H](CCCCN)C(=O)N[C@@H](CCCCN)C(=O)N[C@@H](CCCCNC(=O)[C@H]1NC(=O)[C@H]2NC(=O)[C@H](NC(=O)[C@@H]3NC(=O)[C@H](CC(N)=O)NC(=O)[C@H](NC(=O)[C@@H](CC(C)C)NC)[C@H](O)c4ccc(c(Cl)c4)Oc4cc3cc(c4O[C@@H]3O[C@H](CO)[C@@H](O)[C@H](O)[C@H]3O[C@H]3C[C@](C)(N)[C@H](O)[C@H](C)O3)Oc3ccc(cc3Cl)[C@H]2O)c2ccc(O)c(c2)-c2c(O)cc(O)cc21)C(=O)NC` [MCC_000292], the “Minimum Inhibitory Concentration (MIC) Staph. aureus ATCC43300” value in assay [1] is on record as “xxxx (xxxx = 0.01-<0.1)”. Also, in assay [2], the “Minimum Inhibitory Concentration (MIC) S. pneumoniae ATCC 700677” value was “xxxx (xxxx = 0.01-<0.1)”. For the same compound, in assay [3], the “Minimum Inhibitory Concentration (MIC) E. faecium ATCC51559” value is “xx (xx = 1-4)”.
Regarding `CNC(=O)[C@H](CCCCNC(=O)[C@H]1NC(=O)[C@H]2NC(=O)[C@H](NC(=O)[C@@H]3NC(=O)[C@H](CC(N)=O)NC(=O)[C@H](NC(=O)[C@@H](CC(C)C)NC)[C@H](O)c4ccc(c(Cl)c4)Oc4cc3cc(c4O[C@@H]3O[C@H](CO)[C@@H](O)[C@H](O)[C@H]3O)Oc3ccc(cc3Cl)[C@H]2O)c2ccc(O)c(c2)-c2c(O)cc(O)cc21)NC(=O)[C@H](CCCCN)NC(=O)[C@H](CCCCN)NC(=O)[C@H](CCCCNC(=O)Cc1ccc(-c2ccccc2)cc1)NC(=O)Cc1ccc(-c2ccccc2)cc1` [MCC_000653], in assay [1], the “Minimum Inhibitory Concentration (MIC) Staph. aureus ATCC43300” value is “xxxx (xxxx = 0.01-<0.1)”. Further, the “Minimum Inhibitory Concentration (MIC) S. pneumoniae ATCC 700677” value in assay [2] is on record as “xxxx (xxxx = 0.01-<0.1)”. Also, the “Minimum Inhibitory Concentration (MIC) E. faecium ATCC51559” value in assay [3] is listed as “xx (xx = 1-4)”.
Regarding `CNC(=O)C(CCCCNC(=O)C1NC(=O)C2NC(=O)C(NC(=O)C3NC(=O)C(CC(N)=O)NC(=O)C(NC(=O)C(CC(C)C)NC)C(O)c4ccc(c(Cl)c4)Oc4cc3cc(c4OC3OC(CO)C(O)C(O)C3OC3CC(C)(N)C(O)C(C)O3)Oc3ccc(cc3Cl)C2O)c2ccc(O)c(c2)-c2c(O)cc(O)cc21)NC(=O)C(CCCCN)NC(=O)C(CCCCNC(=O)c1ccc(OCc2ccccc2)cc1)NC(=O)c1ccc(OCc2ccccc2)cc1` (centres unmarked) [MCC_000519], the “Minimum Inhibitory Concentration (MIC) Staph. aureus ATCC43300” value in assay [1] was “xxxxx (xxxxx = <0.01)”. Moreover, the “Minimum Inhibitory Concentration (MIC) S. pneumoniae ATCC 700677” value in assay [2] is given as “xxxxx (xxxxx = <0.01)”. Besides, the “Minimum Inhibitory Concentration (MIC) E. faecium ATCC51559” value in assay [3] is “xx (xx = 1-4)”.
Take `CCCCCOc1ccc(C(=O)NC(CCCCN)C(=O)NC(CCCCN)C(=O)NC(CCCCNC(=O)C2NC(=O)C3NC(=O)C(NC(=O)C4NC(=O)C(CC(N)=O)NC(=O)C(NC(=O)C(CC(C)C)NC)C(O)c5ccc(c(Cl)c5)Oc5cc4cc(c5OC4OC(CO)C(O)C(O)C4OC4CC(C)(N)C(O)C(C)O4)Oc4ccc(cc4Cl)C3O)c3ccc(O)c(c3)-c3c(O)cc(O)cc32)C(=O)NC)cc1` (centres unmarked) [MCC_000501]: the “Minimum Inhibitory Concentration (MIC) Staph. aureus ATCC43300” value in assay [1] was “xxxx (xxxx = 0.01-<0.1)”. Besides, the “Minimum Inhibitory Concentration (MIC) S. pneumoniae ATCC 700677” value in assay [2] is “xxxxx (xxxxx = <0.01)”. Further, the “Minimum Inhibitory Concentration (MIC) E. faecium ATCC51559” value in assay [3] is listed as “x (x = >4)”.
For the compound `CNC(=O)C(CCCCNC(=O)C1NC(=O)C2NC(=O)C(NC(=O)C3NC(=O)C(CC(N)=O)NC(=O)C(NC(=O)C(CC(C)C)NC)C(O)c4ccc(c(Cl)c4)Oc4cc3cc(c4OC3OC(CO)C(O)C(O)C3OC3CC(C)(N)C(O)C(C)O3)Oc3ccc(cc3Cl)C2O)c2ccc(O)c(c2)-c2c(O)cc(O)cc21)NC(=O)C(CCCCN)NC(=O)C(CCCCN)NC(=O)c1ccc(Oc2ccc(F)cc2)cc1` (centres unmarked) [MCC_000514], the “Minimum Inhibitory Concentration (MIC) Staph. aureus ATCC43300” value in assay [1] is recorded as “xxx (xxx = 0.1-<1)”. Besides, the “Minimum Inhibitory Concentration (MIC) S. pneumoniae ATCC 700677” value in assay [2] is “xxx (xxx = 0.1-<1)”. The “Minimum Inhibitory Concentration (MIC) E. faecium ATCC51559” value in assay [3] is reported as “x (x = >4)”.
Take `CCCCCCCCCCCCCC(=O)N[C@@H](CCCCN)C(=O)N[C@@H](CCCCN)C(=O)NCCCNC(=O)[C@H]1NC(=O)[C@H]2NC(=O)[C@H](NC(=O)[C@@H]3NC(=O)[C@H](CC(N)=O)NC(=O)[C@H](NC(=O)[C@@H](CC(C)C)NC)[C@H](O)c4ccc(c(Cl)c4)Oc4cc3cc(c4O[C@@H]3O[C@H](CO)[C@@H](O)[C@H](O)[C@H]3O[C@H]3C[C@](C)(N)[C@H](O)[C@H](C)O3)Oc3ccc(cc3Cl)[C@H]2O)c2ccc(O)c(c2)-c2c(O)cc(O)cc21` [MCC_000345]: the “Minimum Inhibitory Concentration (MIC) Staph. aureus ATCC43300” value in assay [1] is reported as “xxxxx (xxxxx = <0.01)”. For the same compound, in assay [2], the “Minimum Inhibitory Concentration (MIC) S. pneumoniae ATCC 700677” value was “xxxxx (xxxxx = <0.01)”. For the same compound, the “Minimum Inhibitory Concentration (MIC) E. faecium ATCC51559” value in assay [3] is given as “xxxx (xxxx = 0.01-<0.1)”.
Take `CNC(=O)C(CCCCNC(=O)C1NC(=O)C2NC(=O)C(NC(=O)C3NC(=O)C(CC(N)=O)NC(=O)C(NC(=O)C(CC(C)C)NC)C(O)c4ccc(c(Cl)c4)Oc4cc3cc(c4OC3OC(CO)C(O)C(O)C3OC3CC(C)(N)C(O)C(C)O3)Oc3ccc(cc3Cl)C2O)c2ccc(O)c(c2)-c2c(O)cc(O)cc21)NC(=O)C(CCCCN)NC(=O)C(CCCCN)NC(=O)Cc1ccc(-c2ccccc2)cc1` (centres unmarked) [MCC_000512]: in assay [1], the “Minimum Inhibitory Concentration (MIC) Staph. aureus ATCC43300” value is reported as “xxx (xxx = 0.1-<1)”. In assay [2], the “Minimum Inhibitory Concentration (MIC) S. pneumoniae ATCC 700677” value was “xxx (xxx = 0.1-<1)”. Further, the “Minimum Inhibitory Concentration (MIC) E. faecium ATCC51559” value in assay [3] was “x (x = >4)”.
Consider `CCCCCCCCCCCCCC(=O)N[C@@H](CCCCN)C(=O)N[C@@H](CCCCN)C(=O)N[C@@H](Cc1cn(CCCNC(=O)[C@H]2NC(=O)[C@H]3NC(=O)[C@H](NC(=O)[C@@H]4NC(=O)[C@H](CC(N)=O)NC(=O)[C@H](NC(=O)[C@@H](CC(C)C)NC)[C@H](O)c5ccc(c(Cl)c5)Oc5cc4cc(c5O[C@@H]4O[C@H](CO)[C@@H](O)[C@H](O)[C@H]4O[C@H]4C[C@](C)(N)[C@H](O)[C@H](C)O4)Oc4ccc(cc4Cl)[C@H]3O)c3ccc(O)c(c3)-c3c(O)cc(O)cc32)nn1)C(N)=O` [MCC_000979], for which, in assay [1], the “Minimum Inhibitory Concentration (MIC) Staph. aureus ATCC43300” value was “xxxxx (xxxxx = <0.01)”. Moreover, the “Minimum Inhibitory Concentration (MIC) S. pneumoniae ATCC 700677” value in assay [2] was “xxxxx (xxxxx = <0.01)”. In assay [3], the “Minimum Inhibitory Concentration (MIC) E. faecium ATCC51559” value is “xxx (xxx = 0.1-<1)”.
`CCCCCCCCCCC(=O)NC(CCCCN(C)C)C(=O)NCCCNC(=O)C1NC(=O)C2NC(=O)C(NC(=O)C3NC(=O)C(CC(N)=O)NC(=O)C(NC(=O)C(CC(C)C)NC)C(O)c4ccc(c(Cl)c4)Oc4cc3cc(c4OC3OC(CO)C(O)C(O)C3OC3CC(C)(N)C(O)C(C)O3)Oc3ccc(cc3Cl)C2O)c2ccc(O)c(c2)-c2c(O)cc(O)cc21` (centres unmarked) [MCC_007340]: the “Minimum Inhibitory Concentration (MIC) Staph. aureus ATCC43300” value in assay [1] was “xxxxx (xxxxx = <0.01)”. In assay [2], the “Minimum Inhibitory Concentration (MIC) S. pneumoniae ATCC 700677” value is “xxxx (xxxx = 0.01-<0.1)”. For the same compound, the “Minimum Inhibitory Concentration (MIC) E. faecium ATCC51559” value in assay [3] was “xx (xx = 1-4)”.
Turning to `CCCCCCCCCCC(=O)NCCCC[C@H](NC(=O)CCCCCCCCCC)C(=O)N[C@@H](CCCCN)C(=O)N[C@@H](CCCCN)C(=O)N[C@@H](CCCCNC(=O)[C@H]1NC(=O)[C@H]2NC(=O)[C@H](NC(=O)[C@@H]3NC(=O)[C@H](CC(N)=O)NC(=O)[C@H](NC(=O)[C@@H](CC(C)C)NC)[C@H](O)c4ccc(c(Cl)c4)Oc4cc3cc(c4O[C@@H]3O[C@H](CO)[C@@H](O)[C@H](O)[C@H]3O[C@H]3C[C@](C)(N)[C@H](O)[C@H](C)O3)Oc3ccc(cc3Cl)[C@H]2O)c2ccc(O)c(c2)-c2c(O)cc(O)cc21)C(=O)O` [MCC_000231], the “Minimum Inhibitory Concentration (MIC) Staph. aureus ATCC43300” value in assay [1] was “xx (xx = 1-4)”. For the same compound, the “Minimum Inhibitory Concentration (MIC) S. pneumoniae ATCC 700677” value in assay [2] is recorded as “xx (xx = 1-4)”. The “Minimum Inhibitory Concentration (MIC) E. faecium ATCC51559” value in assay [3] is reported as “x (x = >4)”.
Take `CCCCCCCCCCCCCC(=O)NCC(=O)N[C@@H](CO)C(=O)N[C@@H](CCCCN)C(=O)N[C@@H](CCCCN)C(=O)N[C@@H](CCCCN)C(=O)N[C@@H](CCCCNC(=O)[C@H]1NC(=O)[C@H]2NC(=O)[C@H](NC(=O)[C@@H]3NC(=O)[C@H](CC(N)=O)NC(=O)[C@H](NC(=O)[C@@H](CC(C)C)NC)[C@H](O)c4ccc(c(Cl)c4)Oc4cc3cc(c4O[C@@H]3O[C@H](CO)[C@@H](O)[C@H](O)[C@H]3O[C@H]3C[C@](C)(N)[C@H](O)[C@H](C)O3)Oc3ccc(cc3Cl)[C@H]2O)c2ccc(O)c(c2)-c2c(O)cc(O)cc21)C(=O)O` [MCC_000380]: in assay [1], the “Minimum Inhibitory Concentration (MIC) Staph. aureus ATCC43300” value is “xxxx (xxxx = 0.01-<0.1)”. Further, in assay [2], the “Minimum Inhibitory Concentration (MIC) S. pneumoniae ATCC 700677” value is recorded as “xxxxx (xxxxx = <0.01)”.
